Consider 1 substance from ChEMBL document CHEMBL5390219, “Benzyl stapled modification and anticancer activity of antimicrobial peptide A4K14-Citropin 1.1” (Bioorg Med Chem Lett, 2023).

Data set [1] relates to MCF7. As to the kind of experiment: Inhibition of cell migration in human MCF7 cells at 5 uM incubated for 36 hrs by crystal violet staining based microscopy analysis. Format: functional.
The nature of data set [2]: Stability of a compound in human serum assessed as half life at 91 mg/mL incubated for 0 to 144 hrs by HPLC-UV analysis. Format: ADME, cell-free. To be noted: time 0-144 hrs.
The subject of data set [3] is MCF7. The experiment in a line: Anti-cancer activity against human MCF7 assessed as cell viability incubated for 48 hrs by CCK-8 assay. Type of data set: functional, cell-based. To be noted: MCF7, 48 h. (In general: Formazan colour is commonly taken as a measure of viable cells.)
The subject of another data set is U-87 MG. The experiment in a line: Anti-cancer activity against human U-87 MG assessed as cell viability incubated for 48 hrs by CCK-8 assay. Format: functional, cell-based, U-87MG ATCC.
Data set [4] deals with MCF7. As to the kind of experiment: Induction of cell death in human MCF7 cells at 10 uM incubated for 24 hrs by calcein-AM/PI staining based analysis. Type of data set: functional.
The next data set has as its system HCT-116. As to the kind of experiment: Anti-cancer activity against human HCT-116 assessed as cell viability incubated for 48 hrs by CCK-8 assay. Format: functional, cell-based. To be noted: HCT-116, 48 h.
In data set [5] the test system is MCF7. The experiment in a line: Induction of apoptosis in human MCF7 cells assessed as viable cells at 5 uM incubated for 24 hrs by Annexin V-FITC/PI staining based flow cytometry analysis (reference value: 93.51%). Format: functional. To be noted: read-out: Activity. For orientation: Flow cytometry measures light scatter and fluorescence of single cells or particles in a stream.

Data set [6] has as its system MCF7. As to the kind of experiment: Induction of apoptosis in human MCF7 cells assessed as early apoptotic cells at 5 uM incubated for 24 hrs by Annexin V-FITC/PI staining based flow cytometry analysis (reference value: 1.01%). Format: functional.
For data set [7], the system named is MCF7. As to the kind of experiment: Induction of apoptosis in human MCF7 cells assessed as late apoptotic cells at 5 uM incubated for 24 hrs by Annexin V-FITC/PI staining based flow cytometry analysis (reference value: 3.54%). Format: functional.
The test system of data set [8] is MCF7. As to the kind of experiment: Induction of apoptosis in human MCF7 cells assessed as necrotic cells at 5 uM incubated for 24 hrs by Annexin V-FITC/PI staining based flow cytometry analysis (reference value: 1.94%). Format: functional.

Calls of active or inactive are those of the source. The rule behind the calls is not given here.

The half-life is the time in which the quantity being followed falls by half. By IC50 is commonly meant the concentration needed to halve the response being measured. On to Ac-GLFAVIKKVASVIKGL-NH2, for which the result in the data set with MCF7 [1] was inactive. The half-life at 91 mg/mL in [2] is 6.81 h. For the same substance, the IC50 with MCF7 [3] amounted to 14 µM; in the data set with U-87 MG it was 14.4 µM; with HCT-116 it was 16.2 µM. In the data set on MCF7 [4], the result was Active. Further, in the data set with MCF7 [5], the viability at 5 µM worked out at 77.5%. Further, the Activity turned out to be 2.44% with MCF7 [6], 11.45% in the data set on MCF7 [7] and 8.31% in the data set on MCF7 [8].
